Values quoted from earlier work as cited in paper doi:10.1101/2023.05.15.540887, “Comparative analysis of drug-like EP300/CREBBP acetyltransferase inhibitors” (bioRxiv, 2023).

Columns and labels:
Set-up in all cases: method as in ref 29 (a number printed in a supplementary file, which may have a reference list of its own: not looked up in the article's list)
[1] = system: CAKI-1; settings: Renal CAKI-1; highest log conc -4.0; NCI-60 screen data; cited from earlier work
[2] = system: SNB-75; settings: CNS SNB-75; highest log conc -4.0; NCI-60 screen data; cited from earlier work
[3] = system: BT-549; settings: Breast BT-549; highest log conc -4.0; NCI-60 screen data; cited from earlier work
[4] = system: COLO205; settings: Colon COLO205; highest log conc -4.0; NCI-60 screen data; cited from earlier work
[5] = system: NCI-H460; settings: Non-SmallCellLung NCI-H460; highest log conc -4.0; NCI-60 screen data; cited from earlier work
[6] = system: OVCAR-5; settings: Ovarian OVCAR-5; highest log conc -4.0; NCI-60 screen data; cited from earlier work
[7] = system: UACC-62; settings: Melanoma UACC-62; highest log conc -4.0; NCI-60 screen data; cited from earlier work
[8] = system: RPMI-8226; settings: Leukemia RPMI-8226; highest log conc -4.0; NCI-60 screen data; cited from earlier work
[9] = system: A498; settings: Renal A498; highest log conc -4.0; NCI-60 screen data; cited from earlier work
[10] = system: OVCAR-8; settings: Ovarian OVCAR-8; highest log conc -4.0; NCI-60 screen data; cited from earlier work
[11] = system: PC-3; settings: Prostate PC-3; highest log conc -4.0; NCI-60 screen data; cited from earlier work
[12] = system: KM12; settings: Colon KM12; highest log conc -4.0; NCI-60 screen data; cited from earlier work
[13] = system: SF-268; settings: CNS SF-268; highest log conc -4.0; NCI-60 screen data; cited from earlier work
[14] = system: HL-60(TB); settings: Leukemia HL-60(TB); highest log conc -4.0; NCI-60 screen data; cited from earlier work
[15] = system: U251; settings: CNS U251; highest log conc -4.0; NCI-60 screen data; cited from earlier work
[16] = system: EKVX; settings: Non-SmallCellLung EKVX; highest log conc -4.0; NCI-60 screen data; cited from earlier work
[17] = system: SF-295; settings: CNS SF-295; highest log conc -4.0; NCI-60 screen data; cited from earlier work
[18] = system: LOXIMVI; settings: Melanoma LOXIMVI; highest log conc -4.0; NCI-60 screen data; cited from earlier work
[19] = system: ACHN; settings: Renal ACHN; highest log conc -4.0; NCI-60 screen data; cited from earlier work
[20] = system: DU-145; settings: Prostate DU-145; highest log conc -4.0; NCI-60 screen data; cited from earlier work
[21] = system: TK-10; settings: Renal TK-10; highest log conc -4.0; NCI-60 screen data; cited from earlier work

SMILES	GI50 AVGDATA [1]	GI50 AVGDATA [2]	GI50 AVGDATA [3]	GI50 AVGDATA [4]	GI50 AVGDATA [5]	GI50 AVGDATA [6]	GI50 AVGDATA [7]	GI50 AVGDATA [8]	GI50 AVGDATA [9]	GI50 AVGDATA [10]	GI50 AVGDATA [11]	GI50 AVGDATA [12]	GI50 AVGDATA [13]	GI50 AVGDATA [14]	GI50 AVGDATA [15]	GI50 AVGDATA [16]	GI50 AVGDATA [17]	GI50 AVGDATA [18]	GI50 AVGDATA [19]	GI50 AVGDATA [20]	further results
COC(=O)N1c2ccc3c(nc(Cc4ccccc4)n3[C@H]3CCC[C@H](C(=O)O)C3)c2CC[C@@H]1C [FT-6876]	-5.74	-6.37	-4.31	-5.31	-4.63	-4.51	-5.68	-5.42	-4.91	-4.55	-5.25	-4.79	-4.56	-5.5	-4.77	-4.75	-4.93	-5.99	-4.77	-4.03	GI50 AVGDATA [21]: -5.24
Cc1sc2c(c1C)C(c1ccc(Cl)cc1)=N[C@@H](CC(=O)OC(C)(C)C)c1nnc(C)n1-2 [JQ-1]	-7.27	-7.6	-5.51	-6.84	-6.22	-4.98	-7.16	-7.4	-7.21	-6.21	-5.96	-6.02	-5.33	-7.52	-5.91	-5.93	-6.74	-7.17	-6.3	-5.07	GI50 AVGDATA [21]: -7.23
CO[C@H]1CC[C@H](n2c([C@@H]3CCCC(=O)N3c3ccc(F)c(F)c3)nc3cc(-c4c(C)noc4C)ccc32)CC1 [inobrodib]	-6.19	-7.96	-4.99	-5.67	-4.58	-4.77	-5.6	-6.15	-5.22	-4.99	-5.46	-4.86	-4.83	-6.07	-4.99	-5.4	-5.17	-5.38	-5.32	-4.77	GI50 AVGDATA [21]: -5.61
